Measurements from patent publication US8937091B2 (Japan Science and Technology Agency, priority 2009, dated 2015).
Like-named read-outs stand apart in the source and are kept apart here.

How the values were obtained:
[1] = target: TGase (Cavia porcellus, UniProt P08587); type: biochemical; conditions: for TG level: level with DMSO control designated as 100
Experimental: An enzyme reaction solution (0.1 ml) (100 mM HEPES-NaOH, pH 7.5, 1 mM CaCl2, 20 μM monodansyl cadaverine, 0.05 mg/ml N,N-dimethylcasein, 5 μg/ml TGase) was introduced into wells of a 96-well plate (Nunc, 96 Well Black Plate with Clear Bottom). A test compound was added in concentrations of 0.3, 1.0, 3.0, 10, and 30 μM. The solution and the compound were sufficiently mixed while preventing foaming. The plate was set in the fluorescence drug screening system FDSS 3000 (Hamamatsu Photonics K.K.). TGase-inhibiting activity of the compound was calculated by assaying changes in fluorescence wavelength (at 340 nm) per unit time. […] The assay level at which TGase activity decreased by half in the presence of the test compound was designated as TG 50.
Hereafter, the numerals in parentheses written after the TG level, the SOCE level, and the IICR level correspond to the test compound concentrations. The number following the name of each title compound used in the Examples below represents a compound ID number designated arbitrarily by the present inventors.

[2] = tested on: SOCE (store operated calcium entry) in CHO cells; assay: Assay of SOCE (store operated calcium entry)-inhibiting action; type: cell-based, Chinese hamster; conditions: CHO cells, thapsigargin
How it was run: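 CHO cells in calcium-free BSS received compound, then 1 μM thapsigargin 2 min later to deplete stores; after 9 min, 2 mM calcium chloride (final) added. Percent inhibition of the rise in intracellular calcium determined at various compound concentrations.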

[3] = tested on: IICR (IP3 induced calcium release) in CHO cells; assay: Assay of IICR (IP3 induced calcium release)-inhibiting action; type: cell-based, Chinese hamster; conditions: for IICR level (percentage of inhibition): CHO cells, 10 μM ATP
How it was run: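 Inhibition (%) of the intracellular calcium increase triggered by 10 μM ATP, measured in CHO cells in BSS with calcium. Compound given 1 min after the buffer exchange and 2 min before ATP; values reported per compound concentration.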

Row | Molecule | TG-activity-inhibiting action or protein-crosslinking-inhibiting action (in words) [1] | IICR-inhibiting activity compared with SOCE-inhibiting activity (in words) [3] | other results
1 | 2-(N-isopropyl-2-hydroxyethyl)aminoethylferrocenylketone [Example 287] | – | – | TG level ([1]; test compound 3 μmol): 100; TG level ([1]; test compound 30 μmol): 60.8; SOCE level (percentage of inhibition) ([2]; test compound 30 μmol): 0%; SOCE level (percentage of inhibition) ([2]; test compound 100 μmol): 10%; IICR level (percentage of inhibition) ([3]; test compound 10 μmol): 20%; IICR level (percentage of inhibition) ([3]; test compound 30 μmol): 40%; IICR level (percentage of inhibition) ([3]; test compound 100 μmol): 40%
2 | 2-(N-isopropylbenzyl)aminoethyl-1-methyl-2-pyrrylketone [Example 195] | – | – | TG level ([1]; test compound 3 μmol): 73; TG level ([1]; test compound 10 μmol): 62.6; TG level ([1]; test compound 30 μmol): 6.4; SOCE level (percentage of inhibition) ([2]; test compound 10 μmol): 0%; SOCE level (percentage of inhibition) ([2]; test compound 30 μmol): 0%; SOCE level (percentage of inhibition) ([2]; test compound 100 μmol): 10%; IICR level (percentage of inhibition) ([3]; test compound 10 μmol): 0%; IICR level (percentage of inhibition) ([3]; test compound 30 μmol): 0%; IICR level (percentage of inhibition) ([3]; test compound 100 μmol): 0%
3 | 2-(N-isopropylbenzyl)aminoethylferrocenylketone [Example 286] | – | – | TG level ([1]; test compound 3 μmol): 99.2; TG level ([1]; test compound 30 μmol): 54.2; SOCE level (percentage of inhibition) ([2]; test compound 30 μmol): 0%; SOCE level (percentage of inhibition) ([2]; test compound 100 μmol): 0%; IICR level (percentage of inhibition) ([3]; test compound 10 μmol): 50%; IICR level (percentage of inhibition) ([3]; test compound 30 μmol): 80%; IICR level (percentage of inhibition) ([3]; test compound 100 μmol): 50%
4 | 2-bis(N-2-hydroxyethyl)aminoethylferrocenylketone [Example 288] | – | – | TG level ([1]; test compound 3 μmol): 94.9; TG level ([1]; test compound 30 μmol): 44.1; SOCE level (percentage of inhibition) ([2]; test compound 30 μmol): 10%; SOCE level (percentage of inhibition) ([2]; test compound 100 μmol): 40%; IICR level (percentage of inhibition) ([3]; test compound 10 μmol): 40%; IICR level (percentage of inhibition) ([3]; test compound 30 μmol): 50%; IICR level (percentage of inhibition) ([3]; test compound 100 μmol): 60%
5 | CCN(CCC(=O)c1ccco1)Cc1ccccc1 [Example 8412, 2-(N-benzylethyl)aminoethyl-2-furylketone] | strongly | higher than SOCE-inhibiting activity | –
6 | CC(C)(C)N(CCC(=O)c1cccs1)Cc1ccccc1 [Example 8638, 2-(N-t-butylbenzyl)aminoethyl-2-thiophenylketone] | strongly | higher than SOCE-inhibiting activity | –
7 | CCc1nccnc1C(=O)CCN(Cc1ccccc1)C(C)C [Example 8656, 2-(N-isopropylbenzyl)aminoethyl-2-(3-ethyl)-pyrazylketone] | strongly | higher than SOCE-inhibiting activity | –
8 | CCc1nccnc1C(=O)CCN(Cc1ccccc1)C(C)(C)C [Example 8658, 2-(N-t-butylbenzyl)aminoethyl-2-(3-ethyl)-pyrazylketone] | strongly | higher than SOCE-inhibiting activity | –
9 | CC(C)N(CCC(=O)c1cc(Cl)sc1Cl)Cc1ccccc1 [Example 8659, 2-(N-isopropylbenzyl)aminomethyl-3-(2,5-dichlorothiophenyl)ketone] | strongly | higher than SOCE-inhibiting activity | –
10 | Cc1nc(C)c(C(=O)CCN(Cc2ccccc2)C(C)C)s1 [Example 8666, 2-(N-benzylisopropyl)aminoethyl-5-(2,4-dimethylthiazolyl)ketone] | strongly | higher than SOCE-inhibiting activity | –
11 | CN(CCC(=O)c1ccncc1)Cc1ccccc1 [Example 8673, 2-(N-methylbenzyl)aminoethyl-4-pyridylketone] | strongly | higher than SOCE-inhibiting activity | –
12 | CC(C)(C)N(CCC(=O)c1cccnc1)Cc1ccccc1 [Example 8702, 2-(N-benzyl-t-butyl)aminoethyl-3-pyridylketone] | strongly | higher than SOCE-inhibiting activity | –
13 | CN(CCO)CCC(=O)c1ccco1 [Example 8707, 2-(N-2-hydroxyethylmethyl)aminoethyl-2-furylketone] | strongly | higher than SOCE-inhibiting activity | –
14 | CC(C)(C)N(CCC(=O)c1nccs1)Cc1ccccc1 [Example 8729, 2-(N-benzyl-t-butyl)aminoethyl-2-thiazolylketone] | strongly | higher than SOCE-inhibiting activity | –
15 | CC(C)(C)N(CCC(=O)c1ccc(Cl)s1)Cc1ccccc1 [Example 8756, 2-(N-t-butylbenzyl)aminoethyl-5-chloro-2-thienylketone] | strongly | higher than SOCE-inhibiting activity | –
16 | CC(C)N(CCC(=O)c1cc2ccccc2s1)Cc1ccccc1 [Example 8759, 2-(N-isopropylbenzyl)aminoethyl-2-benzothienylketone] | strongly | higher than SOCE-inhibiting activity | –
17 | CC(C)(C)N(CCC(=O)c1cc2ccccc2s1)Cc1ccccc1 [Example 8761, 2-(N-t-butylbenzyl)aminoethyl-2-benzothienylketone] | strongly | higher than SOCE-inhibiting activity | –
18 | CCN(CCC(=O)c1nccs1)Cc1ccccc1 [Example 8765, 2-(N-ethylbenzyl)aminoethyl-2-thiazolylketone] | strongly | higher than SOCE-inhibiting activity | –
19 | O=C(CCN(CCO)Cc1ccccc1)c1nccs1 [Example 8766, 2-(N-2-hydroxyethylbenzyl)aminoethyl-2-thiazolylketone] | strongly | higher than SOCE-inhibiting activity | –
20 | CC(C)N(CCC(=O)c1ccc(Br)s1)Cc1ccccc1 [Example 8768, 2-(N-isopropylbenzyl)aminoethyl-5-bromo-2-thienylketone] | strongly | higher than SOCE-inhibiting activity | –
21 | CCCCN(CCO)CCC(=O)c1ccc(Br)s1 [Example 8769, 2-(N-2-hydroxyethylbutyl)aminoethyl-5-bromo-2-thienylketone] | strongly | higher than SOCE-inhibiting activity | –
22 | CC(C)(C)N(CCC(=O)c1ccc(C#N)cc1)Cc1ccccc1 [Example 8789, 2-(N-t-butylbenzyl)aminoethyl-4-cyanophenylketone] | strongly | higher than SOCE-inhibiting activity | –
23 | CC(C)N(CCC(=O)c1ccc(C#N)cc1)Cc1ccccc1 [Example 8803, 2-(N-benzylisopropyl)aminoethyl-4-cyanophenylketone] | strongly | higher than SOCE-inhibiting activity | –
24 | Cc1ccsc1C(=O)CCN(Cc1ccccc1)C(C)(C)C [Example 8816, 2-(N-benzyl-t-butyl)aminoethyl-3-methyl-2-thienylketone] | strongly | higher than SOCE-inhibiting activity | –
25 | Cc1csc(C(=O)CCN(Cc2ccccc2)C(C)(C)C)c1 [Example 8817, 2-(N-benzyl-t-butyl)aminoethyl-4-methyl-2-thienylketone] | strongly | higher than SOCE-inhibiting activity | –
26 | Cc1ccc(C(=O)CCN(Cc2ccccc2)C(C)(C)C)s1 [Example 8818, 2-(N-benzyl-t-butyl)aminoethyl-5-methyl-2-thienylketone] | strongly | higher than SOCE-inhibiting activity | –
27 | CCCCN(CCCC)CCC(=O)c1ccc(Br)s1 [Example 8848, 2-(N,N-di-n-butyl)aminoethyl-5-bromo-2-thienylketone] | strongly | higher than SOCE-inhibiting activity | –
28 | CCC(C)N(CCC(=O)c1ccc(Br)s1)C(C)CC (stereo not drawn) [Example 8849, 2-(N,N-di-sec-butyl)aminoethyl-5-bromo-2-thienylketone] | strongly | higher than SOCE-inhibiting activity | –
